Data on nine molecules can be found in patent US20230183292A1, “IMMUNOMODULATORS” (priority 2020, published 2023).

As usually defined, the IC50 is the concentration needed to halve the response being measured.

Where two headings read alike, the source gives them in different places. Starred links: 1 amine or outer side, 2 acyl side, 3 side chain; linkers in the order of their positions; H or OH if unused. Positions of bridges follow the written chain, without caps; N, C: chain ends. Non-standard residues stand in square brackets, D forms with d. Residues, ends and D or L forms follow the SMILES beside them. *: point of attachment. Chenodeoxycholyl = C[C@H](CCC(=O)*)[C@H]1CC[C@H]2[C@@H]3[C@H](O)C[C@@H]4C[C@H](O)CC[C@]4(C)[C@H]3CC[C@]12C; Cholyl = C[C@H](CCC(=O)*)[C@H]1CC[C@H]2[C@@H]3[C@H](O)C[C@@H]4C[C@H](O)CC[C@]4(C)[C@H]3C[C@H](O)[C@]12C; X14 = C[C@H](CCC(=O)*)[C@H]1CC[C@H]2[C@H]3C(C[C@H](O)[C@]12C)[C@@]1(C)CC[C@@H](O)C[C@H]1C[C@H]3O; X10 = C[C@H](CCC(=O)*)[C@H]1CC[C@H]2[C@@H]3C(=O)C[C@@H]4C[C@H](O)CC[C@]4(C)[C@H]3CC(=O)[C@]12C; X16 = C[C@H](CCC(=O)*)[C@H]1CC[C@H]2[C@@H]3CC(=O)[C@@H]4CC(=O)CC[C@]4(C)[C@H]3CC[C@]12C; X13 = CC(C)CNC(=O)Cn1cc(C[C@H](N[*:1])C(=O)[*:2])c2ccccc21; Trp(1-CH2COOH) = N[C@@H](Cc1cn(CC(=O)O)c2ccccc12)C(=O)O; X31 = CCOC(=O)Cn1cc(C[C@H](N[*:1])C(=O)[*:2])c2ccccc21; Hyp = O=C(O)[C@@H]1C[C@@H](O)CN1; NMeNle = CCCC[C@H](NC)C(=O)O; NMeA = CN[C@@H](C)C(=O)O; Dab = NCC[C@H](N)C(=O)O; Dap = NC[C@H](N)C(=O)O

In the assay the target is T1, PD-1/PD-L1 (Homo sapiens, UniProt Q9NZQ7).
T1 construct: TVMV protease site (C); made in house; host or cells: HEK293T cells
The assay is described as follows: PD-1/PD-L1 Homogenous Time-Resolved Fluorescence (HTRF) binding assay. The note with it: PD-1-Ig 20 nM. The text has this: The ability of the compounds of formula (I) to bind to PD-L1 was investigated using a PD-1/PD-L1 Homogenous Time-Resolved Fluorescence (HTRF) binding assay.
The interaction of PD-1 and PD-L1 can be assessed using soluble, purified preparations of the extracellular domains of the two proteins. The PD-1 and PD-L1 protein extracellular domains were expressed as fusion proteins with detection tags, for PD-1, the tag was the Fc portion of Immunoglobulin (PD-1-Ig) and for PD-L1 it was the 6 histidine motif (PD-L1-His). All binding studies were performed in an HTRF assay buffer consisting of dPBS supplemented with 0.1% […] bovine serum albumin and 0.05% (v/v) Tween-20. For the h/PD-L1-His binding assay, inhibitors were pre-incubated with PD-L1-His (10 nM final) for 15 m in 4 μl of assay buffer, followed by addition of PD-1-Ig (20 nM final) in 1 μl of assay buffer and further incubation for 15 m. HTRF detection was achieved using europium crypate-labeled anti-Ig (1 nM final) and allophycocyanin (APC) labeled anti-His (20 nM final). Antibodies were diluted in HTRF detection buffer and 5 μl was dispensed on top of the binding reaction. The reaction mixture was allowed to equilibrate for 30 minutes and the resulting signal (665 nm/620 nm ratio) was obtained using an EnVision fluorometer. Additional binding assays were established between the human proteins PD-1-Ig/PD-L2-His (20 & 5 nM, respectively) and CD80-His/PD-L1-Ig (100 & 10 nM, respectively).
Recombinant Proteins: Human PD-1 (25-167) with a C-terminal human Fc domain of immunoglobulin G (Ig) epitope tag [hPD-1 (25-167)-3S-IG] and human PD-L1 (18-239) with a C-terminal His epitope tag [hPD-L1(18-239)-TVMV-His] were expressed in HEK293T cells and purified sequentially by ProteinA affinity chromatography and size exclusion chromatography. Human PD-L2-His and CD80-His was obtained through commercial sources.
Table 1 lists the IC50 values for representative examples of this disclosure measured in the PD-1/PD-L1 Homogenous Time-Resolved Fluorescence (HTRF) binding assay.
Background: Time-resolved FRET reads energy transfer from a long-lived donor to a nearby acceptor.

Where [1] appears, read: PD-L1-His 10 nM, read-out: HTRF IC50.

T1 sequence (Q9NZQ7 18-239): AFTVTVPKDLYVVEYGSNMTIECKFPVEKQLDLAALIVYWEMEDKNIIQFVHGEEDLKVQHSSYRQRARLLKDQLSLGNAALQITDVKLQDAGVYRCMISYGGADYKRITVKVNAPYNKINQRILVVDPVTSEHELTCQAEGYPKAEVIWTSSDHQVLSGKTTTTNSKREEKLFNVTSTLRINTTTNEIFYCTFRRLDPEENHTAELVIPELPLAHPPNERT

Consider `CCCC[C@H]1C(=O)N(C)[C@@H](CCCC)C(=O)N[C@@H](CC(C)C)C(=O)N[C@H](C(=O)NCC(N)=O)CSCC(=O)N[C@@H](Cc2ccc(O)cc2)C(=O)N(C)[C@@H](C)C(=O)N[C@@H](CC(N)=O)C(=O)N2CCC[C@H]2C(=O)N[C@@H](CNC(=O)CC[C@@H](C)[C@H]2CC[C@H]3[C@@H]4C(=O)C[C@@H]5C[C@H](O)CC[C@]5(C)[C@H]4CC(=O)[C@]23C)C(=O)N[C@@H](CC(C)C)C(=O)N2C[C@H](O)C[C@H]2C(=O)N[C@@H](Cc2c[nH]c3ccccc23)C(=O)N[C@@H](CCNC(=O)CC[C@@H](C)[C@H]2CC[C@H]3[C@@H]4C(=O)C[C@@H]5C[C@H](O)CC[C@]5(C)[C@H]4CC(=O)[C@]23C)C(=O)N[C@@H](Cc2cn(CC(=O)O)c3ccccc23)C(=O)N1C` [Example 1018] ({CH2CO}-Y[NMeA]NP[Dap](X10)L[Hyp]W[Dab](X10)[Trp(1-CH2COOH)][NMeNle][NMeNle]LCG-NH2; thioether N-14), for which the IC50 under setting [1] came to 6.2 nM.

As to `CCCC[C@H]1C(=O)N(C)[C@@H](CCCC)C(=O)N[C@@H](CC(C)C)C(=O)N[C@H](C(=O)NCC(N)=O)CSCC(=O)N[C@@H](Cc2ccc(O)cc2)C(=O)N(C)[C@@H](C)C(=O)N[C@@H](CC(N)=O)C(=O)N2CCC[C@H]2C(=O)N[C@@H](CNC(=O)CC[C@@H](C)[C@H]2CC[C@H]3[C@@H]4CC(=O)[C@@H]5CC(=O)CC[C@]5(C)[C@H]4CC[C@]23C)C(=O)N[C@@H](CC(C)C)C(=O)N2C[C@H](O)C[C@H]2C(=O)N[C@@H](Cc2c[nH]c3ccccc23)C(=O)N[C@@H](CCNC(=O)CC[C@@H](C)[C@H]2CC[C@H]3[C@@H]4CC(=O)[C@@H]5CC(=O)CC[C@]5(C)[C@H]4CC[C@]23C)C(=O)N[C@@H](Cc2cn(CC(=O)O)c3ccccc23)C(=O)N1C` [Example 1019] ({CH2CO}-Y[NMeA]NP[Dap](X16)L[Hyp]W[Dab](X16)[Trp(1-CH2COOH)][NMeNle][NMeNle]LCG-NH2; thioether N-14), the half-maximal inhibitory concentration (IC50) under setting [1] is 13 nM. `CCCC[C@H]1C(=O)N(C)[C@@H](CCCC)C(=O)N[C@@H](CC(C)C)C(=O)N[C@H](C(=O)NCC(N)=O)CSCC(=O)N[C@@H](Cc2ccc(O)cc2)C(=O)N(C)[C@@H](C)C(=O)N[C@@H](CC(N)=O)C(=O)N2CCC[C@H]2C(=O)N[C@@H](CNC(=O)CC[C@@H](C)[C@H]2CC[C@H]3[C@@H]4[C@H](O)C[C@@H]5C[C@H](O)CC[C@]5(C)[C@H]4CC[C@]23C)C(=O)N[C@@H](CC(C)C)C(=O)N2C[C@H](O)C[C@H]2C(=O)N[C@@H](Cc2c[nH]c3ccccc23)C(=O)N[C@@H](CCNC(=O)CC[C@@H](C)[C@H]2CC[C@H]3[C@@H]4[C@H](O)C[C@@H]5C[C@H](O)CC[C@]5(C)[C@H]4CC[C@]23C)C(=O)N[C@@H](Cc2cn(CC(=O)OCC)c3ccccc23)C(=O)N1C` [Example 2001] ({CH2CO}-Y[NMeA]NP[Dap](Chenodeoxycholyl)L[Hyp]W[Dab](Chenodeoxycholyl)[X31][NMeNle][NMeNle]LCG-NH2; thioether N-14): the IC50 under setting [1] was 220 nM. The same measure, in the same setting: under `CCCC[C@H]1C(=O)N(C)[C@@H](CCCC)C(=O)N[C@@H](CC(C)C)C(=O)N[C@H](C(=O)NCC(N)=O)CSCC(=O)N[C@@H](Cc2ccc(O)cc2)C(=O)N(C)[C@@H](C)C(=O)N[C@@H](CC(N)=O)C(=O)N2CCC[C@H]2C(=O)N[C@@H](CNC(=O)CC[C@@H](C)[C@H]2CC[C@H]3[C@@H]4[C@H](O)C[C@@H]5C[C@H](O)CC[C@]5(C)[C@H]4C[C@H](O)[C@]23C)C(=O)N[C@@H](CC(C)C)C(=O)N2C[C@H](O)C[C@H]2C(=O)N[C@@H](Cc2c[nH]c3ccccc23)C(=O)N[C@@H](CCNC(=O)CC[C@@H](C)[C@H]2CC[C@H]3[C@H]4C(C[C@H](O)[C@]23C)[C@@]2(C)CC[C@@H](O)C[C@H]2C[C@H]4O)C(=O)N[C@@H](Cc2cn(CC(=O)NCC(C)C)c3ccccc23)C(=O)N1C` (stereo partly drawn) [Example 2002] ({CH2CO}-Y[NMeA]NP[Dap](Cholyl)L[Hyp]W[Dab](X14)[X13][NMeNle][NMeNle]LCG-NH2; thioether N-14) stands 3300 nM; under `CCCC[C@H]1C(=O)N(C)[C@@H](CCCC)C(=O)N[C@@H](CC(C)C)C(=O)N[C@H](C(=O)NCC(N)=O)CSCC(=O)N[C@@H](Cc2ccc(O)cc2)C(=O)N(C)[C@@H](C)C(=O)N[C@@H](CC(N)=O)C(=O)N2CCC[C@H]2CN[C@@H](CNC(=O)CC[C@@H](C)[C@H]2CC[C@H]3[C@@H]4[C@H](O)C[C@@H]5C[C@H](O)CC[C@]5(C)[C@H]4C[C@H](O)[C@]23C)C(=O)N[C@@H](CC(C)C)C(=O)N2C[C@H](O)C[C@H]2C(=O)N[C@@H](Cc2c[nH]c3ccccc23)C(=O)N[C@@H](CCNC(=O)CC[C@@H](C)[C@H]2CC[C@H]3[C@@H]4[C@H](O)C[C@@H]5C[C@H](O)CC[C@]5(C)[C@H]4C[C@H](O)[C@]23C)C(=O)N[C@@H](Cc2cn(CC(=O)OC3CC3)c3ccccc23)C(=O)N1C` [Example 2003], 970 nM. Regarding `CCCC[C@H]1C(=O)N(C)[C@@H](CCCC)C(=O)N[C@@H](CC(C)C)C(=O)N[C@H](C(=O)NCC(N)=O)CSCC(=O)N[C@@H](Cc2ccc(O)cc2)C(=O)N(C)[C@@H](C)C(=O)N[C@@H](CC(N)=O)C(=O)N2CCC[C@H]2CN[C@@H](CNC(=O)CC[C@@H](C)[C@H]2CC[C@H]3[C@@H]4[C@H](O)C[C@@H]5C[C@H](O)CC[C@]5(C)[C@H]4C[C@H](O)[C@]23C)C(=O)N[C@@H](CC(C)C)C(=O)N2C[C@H](O)C[C@H]2C(=O)N[C@@H](Cc2c[nH]c3ccccc23)C(=O)N[C@@H](CCNC(=O)CC[C@@H](C)[C@H]2CC[C@H]3[C@@H]4[C@H](O)C[C@@H]5C[C@H](O)CC[C@]5(C)[C@H]4C[C@H](O)[C@]23C)C(=O)N[C@@H](Cc2cn(CC(=O)OCCCO)c3ccccc23)C(=O)N1C` [Example 2004], under setting [1], the IC50 came out at 350 nM. On to `CCCC[C@H]1C(=O)N(C)[C@@H](CCCC)C(=O)N[C@@H](CC(C)C)C(=O)N[C@H](C(=O)NCC(N)=O)CSCC(=O)N[C@@H](Cc2ccc(O)cc2)C(=O)N(C)[C@@H](C)C(=O)N[C@@H](CC(N)=O)C(=O)N2CCC[C@H]2CN[C@@H](CNC(=O)CC[C@@H](C)[C@H]2CC[C@H]3[C@@H]4[C@H](O)C[C@@H]5C[C@H](O)CC[C@]5(C)[C@H]4C[C@H](O)[C@]23C)C(=O)N[C@@H](CC(C)C)C(=O)N2C[C@H](O)C[C@H]2C(=O)N[C@@H](Cc2c[nH]c3ccccc23)C(=O)N[C@@H](CCNC(=O)CC[C@@H](C)[C@H]2CC[C@H]3[C@@H]4[C@H](O)C[C@@H]5C[C@H](O)CC[C@]5(C)[C@H]4C[C@H](O)[C@]23C)C(=O)N[C@@H](Cc2cn(CC(=O)OCCO)c3ccccc23)C(=O)N1C` [Example 2005], for which the 50% inhibitory concentration (IC50) under setting [1] was determined as 210 nM. The same measure, in the same setting: the figure for `CCCC[C@H]1C(=O)N(C)[C@@H](CCCC)C(=O)N[C@@H](CC(C)C)C(=O)N[C@H](C(=O)NCC(N)=O)CSCC(=O)N[C@@H](Cc2ccc(O)cc2)C(=O)N(C)[C@@H](C)C(=O)N[C@@H](CC(N)=O)C(=O)N2CCC[C@H]2CN[C@@H](CNC(=O)CC[C@@H](C)[C@H]2CC[C@H]3[C@@H]4[C@H](O)C[C@@H]5C[C@H](O)CC[C@]5(C)[C@H]4C[C@H](O)[C@]23C)C(=O)N[C@@H](CC(C)C)C(=O)N2C[C@H](O)C[C@H]2C(=O)N[C@@H](Cc2c[nH]c3ccccc23)C(=O)N[C@@H](CCNC(=O)CC[C@@H](C)[C@H]2CC[C@H]3[C@@H]4[C@H](O)C[C@@H]5C[C@H](O)CC[C@]5(C)[C@H]4C[C@H](O)[C@]23C)C(=O)N[C@@H](Cc2cn(CC(=O)OCCOCCO)c3ccccc23)C(=O)N1C` [Example 2006] is 200 nM. Under “HTRF IC50, PD-L1-His 10 nM”, `CCCC[C@H]1C(=O)N(C)[C@@H](CCCC)C(=O)N[C@@H](CC(C)C)C(=O)N[C@H](C(=O)NCC(N)=O)CSCC(=O)N[C@@H](Cc2ccc(O)cc2)C(=O)N(C)[C@@H](C)C(=O)N[C@@H](CC(N)=O)C(=O)N2CCC[C@H]2CN[C@@H](CNC(=O)CC[C@@H](C)[C@H]2CC[C@H]3[C@@H]4[C@H](O)C[C@@H]5C[C@H](O)CC[C@]5(C)[C@H]4C[C@H](O)[C@]23C)C(=O)N[C@@H](CC(C)C)C(=O)N2C[C@H](O)C[C@H]2C(=O)N[C@@H](Cc2c[nH]c3ccccc23)C(=O)N[C@@H](CCNC(=O)CC[C@@H](C)[C@H]2CC[C@H]3[C@@H]4[C@H](O)C[C@@H]5C[C@H](O)CC[C@]5(C)[C@H]4C[C@H](O)[C@]23C)C(=O)N[C@@H](Cc2cn(CC(=O)Oc3ccccc3)c3ccccc23)C(=O)N1C` [Example 2007] yielded an IC50 of 720 nM.
